Tested on: MDA-MB-231 complex spheroids, growth inhibition
Test: Anticancer human tumor MDA-MB-231 cell line growth inhibition [Asc];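 also: spheroids exposed to compounds for 7 days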
Settings: for IC50: curve of first compound; for viability, T/C: stronger effect = lower value
Method: Multicellular complex tumor spheroid response to apoptosis pathway targeting inhibitors Alrizomadlin, Pelcitoclax, and Dasminapant in combination with a variety of drugs and investigational agents in selected tumor cell lines
The MDM2 inhibitor alrizomadlin, the Bcl-2/Bcl-xL inhibitor pelcitoclax, and the IAPs inhibitor dasminapant were evaluated both individually and in combination with standard of care and investigational anticancer small molecules within a complex spheroid model of solid tumors. . Complex spheroids include a stromal component modeled by human endothelial cells (HUVEC) and fibroblasts modeled by human mesenchymal stem cells (MSCs). The concentration ranges selected for each drug and investigational agent were based upon clinically achievable concentrations if the clinical Cmax of the agent was known.
Compounds. The drugs and investigational agents: alrizomadlin (APG-115; NSC831270), pelcitoclax (APG-1252; NSC835773), dasminapant (APG-1387;NSC834197), TAK-243 (NSC785004), copanlisib (NSC809693), olaparib (NSC753686), talazoparib (NSC767125), cobimetinib (NSC 768068), eltanexor (KPT-8602, NSC 794443), abemaciclib (NSC 768073), sotorasib (NSC818433), adagrasib (NSC 831453), MRTX-1133 (NSC 836407), Iadademestat (ORY1001, NSC 806812), and RMC-4630 (NSC839698), were obtained from the NCI Developmental Therapeutics Program Chemical Repository. The FDA-approved anticancer drug set is available from the Developmental Therapeutics Program at https://dtp.cancer.gov/organization/dscb/obtaining/available plates.htm. […] The stock solutions were prepared in dimethyl sulfoxide (DMSO, Sigma-Aldrich, St. Louis, MO, cat. D2650) at 800-fold the tested concentration and stored at -70 degrees C prior to their use. All drugs and investigational agents were tested over a range starting from a high concentration at or near the clinical Cmax and decreasing in half-log increments. If the clinical Cmax for an agent had not been determined, the highest concentration tested was 10 microM.
The patient-derived cancer (PDC) cell lines include five colon adenocarcinomas: 186277-243-T-J2-PDC, 616215-338-R-J1-PDC, 439559-082-T-J2-PDC, 463943-066-T-J2-PDC, and 519858-162-T-J1-PDC; three pancreatic carcinomas: 323965-272-R-J2-PDC, 521955-158-R6-J3-PDC, and 521955-158-R2-J5-PDC; two uterine sarcomas: 327498-152-R-J2-PDC and 993429-296-R-J1-PDC; two rhabdomyosarcomas: 755483-174-R-J1-PDC and 772245-204-R-J1-PDC; two soft tissue sarcomas: 126254-015-R-J1-PDC and 494315-158-R-J1-PDC; two malignant fibrous histiocytomas: 317291-083-R-J1-PDC and 596521-263-R-J1-PDC; two breast carcinomas: 171881-019-R-J1-PDC and 885512-296-R-J2-PDC; and one ovarian carcinoma: 6556581-035-R-J-PDC were obtained from the NCI PDMR, (https://pdmr.cancer.gov). The established cell lines HSSY-2 synovial sarcoma (RRID:CVCL 8719), SYO-1 synovial sarcoma (RRID:CVCL_7146), MPNST malignant peripheral neural sheath tumor were obtained from the Sloan Kettering Institute. The following established cell lines were purchased from the American Type Culture Collection (ATCC, Manassas, VA), Sor the received from the NCI repository:, PANC-1 pancreatic carcinoma (CRL-1469, RRID:CVCL_0480), OVCAR-5 ovarian carcinoma (RRID:CVCL_1628), OVCAR-8 ovarian carcinoma (RRID:CVCL_1629), , MCF-7 breast carcinoma (CRL-12584, RRID:CVCL_0031), MDA-MB-231 breast carcinoma (CRL-12532, RRID:CVCL_0062), NCI-H1876 small cell lung carcinoma (CRL-5902, RRID:CVCL_1503), NCI-H510A small cell lung carcinoma (HTB-184, RRID:CVCL_1565), NCI-H1417 (CRL-5869, RRID:CVCL_1469), and NCI-H196 small cell lung carcinoma (CRL-5823, RRID:CVCL_1509). Dr. Peter Houghton (Greehey Children's Cancer Research Institute, University of Texas Health Science Center, San Antonio, TX) provided Rh-18 rhabdomyosarcoma (RRID:CVCL_1659). Pooled donor human umbilical vein endothelial cells (HUVEC, Lonza, cat. CC-2519) and human mesenchymal stem cells (hMSC, Lonza, cat. PT-2501) were purchased from Lonza (Walkersville, MD).
Cell Culture. […]

`CCN1C(C(=O)NC23CCC(C(=O)O)(CC2)CC3)C(c2cccc(Cl)c2F)C2(C(=O)Nc3cc(Cl)ccc32)C12CCCCC2` (stereo not given) + CNC(C)C(=O)NC1CN(S(=O)(=O)c2cccc(S(=O)(=O)N3CCC4CCC(C(=O)NC(c5ccccc5)c5ccccc5)N4C(=O)C(NC(=O)C(C)NC)C3)c2)CCC2CCC(C(=O)NC(c3ccccc3)c3ccccc3)N2C1=O gave an IC50 (second compound 0.01 µM) of under 9.49 nM, an IC50 (second compound 0.0316 µM) of under 9.49 nM and an IC50 (second compound 0.1 µM) of under 9.49 nM. The IC50 (second compound 0.316 µM) was under 9.49 nM, the IC50 (second compound 1 µM) was under 9.49 nM and the viability, T/C (second compound 0.01 µM, first compound 0.00949 µM) was 2.02%. For the same compound, the viability, T/C (second compound 0.01 µM, first compound 0.03 µM) was 2.75%, the viability, T/C (second compound 0.01 µM, first compound 0.0949 µM) was 1.79% and the viability, T/C (second compound 0.01 µM, first compound 0.3 µM) was 1.37%. The viability, T/C (second compound 0.01 µM, first compound 0.949 µM) was 2.73%, the viability, T/C (second compound 0.01 µM, first compound 3 µM) was 2.05% and the viability, T/C (second compound 0.0316 µM, first compound 0.00949 µM) was 1.54%. It also gave a viability, T/C (second compound 0.0316 µM, first compound 0.03 µM) of 2.84%, a viability, T/C (second compound 0.0316 µM, first compound 0.0949 µM) of 1.94% and a viability, T/C (second compound 0.0316 µM, first compound 0.3 µM) of 0.92%. For the same compound, the viability, T/C (second compound 0.0316 µM, first compound 0.949 µM) was 1.76%, the viability, T/C (second compound 0.0316 µM, first compound 3 µM) was 1.43% and the viability, T/C (second compound 0.1 µM, first compound 0.00949 µM) was 1.27%. For the same compound, the viability, T/C (second compound 0.1 µM, first compound 0.03 µM) was 1.6%, the viability, T/C (second compound 0.1 µM, first compound 0.0949 µM) was 1.85% and the viability, T/C (second compound 0.1 µM, first compound 0.3 µM) was 0.87%. It also gave a viability, T/C (second compound 0.1 µM, first compound 0.949 µM) of 1.78%, a viability, T/C (second compound 0.1 µM, first compound 3 µM) of 2.03% and a viability, T/C (second compound 0.316 µM, first compound 0.00949 µM) of 0.92%. For the same compound, the viability, T/C (second compound 0.316 µM, first compound 0.03 µM) was 2.14%, the viability, T/C (second compound 0.316 µM, first compound 0.0949 µM) was 1.07% and the viability, T/C (second compound 0.316 µM, first compound 0.3 µM) was 0.78%. The viability, T/C (second compound 0.316 µM, first compound 0.949 µM) was 1.14%, the viability, T/C (second compound 0.316 µM, first compound 3 µM) was 1.24% and the viability, T/C (second compound 1 µM, first compound 0.00949 µM) was 1.09%. For the same compound, the viability, T/C (second compound 1 µM, first compound 0.03 µM) was 0.9%, the viability, T/C (second compound 1 µM, first compound 0.0949 µM) was 0.88% and the viability, T/C (second compound 1 µM, first compound 0.3 µM) was 2.3%. The viability, T/C (second compound 1 µM, first compound 0.949 µM) was 0.81% and the viability, T/C (second compound 1 µM, first compound 3 µM) was 0.71%.
Work on `C=CC(=O)N1CCN(c2nc(=O)n(-c3c(C)ccnc3C(C)C)c3nc(-c4c(O)cccc4F)c(F)cc23)C(C)C1` (stereo not given) + CNC(C)C(=O)NC1CN(S(=O)(=O)c2cccc(S(=O)(=O)N3CCC4CCC(C(=O)NC(c5ccccc5)c5ccccc5)N4C(=O)C(NC(=O)C(C)NC)C3)c2)CCC2CCC(C(=O)NC(c3ccccc3)c3ccccc3)N2C1=O yielded an IC50 (second compound 0.01 µM) of under 31.6 nM, an IC50 (second compound 0.0316 µM) of under 31.6 nM and an IC50 (second compound 0.1 µM) of under 31.6 nM. It also gave an IC50 (second compound 0.316 µM) of under 31.6 nM, an IC50 (second compound 1 µM) of under 31.6 nM and a viability, T/C (second compound 0.01 µM, first compound 0.0316 µM) of 4.27%. It also gave a viability, T/C (second compound 0.01 µM, first compound 0.1 µM) of 4.47%, a viability, T/C (second compound 0.01 µM, first compound 0.316 µM) of 3.48% and a viability, T/C (second compound 0.01 µM, first compound 1 µM) of 4.14%. For the same compound, the viability, T/C (second compound 0.01 µM, first compound 3.16 µM) was 3.21%, the viability, T/C (second compound 0.01 µM, first compound 10 µM) was 2.6% and the viability, T/C (second compound 0.0316 µM, first compound 0.0316 µM) was 1.6%. For the same compound, the viability, T/C (second compound 0.0316 µM, first compound 0.1 µM) was 1.97%, the viability, T/C (second compound 0.0316 µM, first compound 0.316 µM) was 3.62% and the viability, T/C (second compound 0.0316 µM, first compound 1 µM) was 3.15%. It also gave a viability, T/C (second compound 0.0316 µM, first compound 3.16 µM) of 2.97%, a viability, T/C (second compound 0.0316 µM, first compound 10 µM) of 3.77% and a viability, T/C (second compound 0.1 µM, first compound 0.0316 µM) of 1.84%. It also gave a viability, T/C (second compound 0.1 µM, first compound 0.1 µM) of 1.71%, a viability, T/C (second compound 0.1 µM, first compound 0.316 µM) of 1.31% and a viability, T/C (second compound 0.1 µM, first compound 1 µM) of 0.87%. It also gave a viability, T/C (second compound 0.1 µM, first compound 3.16 µM) of 2.25%, a viability, T/C (second compound 0.1 µM, first compound 10 µM) of 1.71% and a viability, T/C (second compound 0.316 µM, first compound 0.0316 µM) of 1.02%. For the same compound, the viability, T/C (second compound 0.316 µM, first compound 0.1 µM) was 1.06%, the viability, T/C (second compound 0.316 µM, first compound 0.316 µM) was 2.22% and the viability, T/C (second compound 0.316 µM, first compound 1 µM) was 1.43%. It also gave a viability, T/C (second compound 0.316 µM, first compound 3.16 µM) of 1.4%, a viability, T/C (second compound 0.316 µM, first compound 10 µM) of 2.33% and a viability, T/C (second compound 1 µM, first compound 0.0316 µM) of 1.09%. The viability, T/C (second compound 1 µM, first compound 0.1 µM) was 1.13%, the viability, T/C (second compound 1 µM, first compound 0.316 µM) was 1.81% and the viability, T/C (second compound 1 µM, first compound 1 µM) was 1.73%. For the same compound, the viability, T/C (second compound 1 µM, first compound 3.16 µM) was 1.35% and the viability, T/C (second compound 1 µM, first compound 10 µM) was 3.82%.

From PubChem BioAssay AID1963443 (Molecular Pharmacology Branch, DTP, NCI, 2024)
